Reference: the supplement of paper PMC11061612

How the values were obtained:
D-392MG (Glioblastoma) = assay: Bliss excess, mean over the matrix (fraction); higher = more synergy
Procedure, shortened: (§1)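 Bliss excess equals the observed combination effect minus the expected value EA + EB − EA·EB, where EA and EB are the effects of each agent alone. Combination Emax is the second-highest inhibition within the matrix. Inhibition was scaled from CellTiter-Glo 2.0 luminescence, with 0 set by vehicle wells and 1 by blank wells, after 72 hours of two-drug dosing of cells plated in 1536-well plates.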

[1] = tested on: SNU-61 (Colorectal Carcinoma); assay: as above
Procedure, shortened: as §1

[2] = tested on: HLE (Hepatocellular Carcinoma); assay: as above
Procedure, shortened: as §1

[3] = tested on: SK-UT-1 (Other Solid Carcinomas); assay: as above
Procedure, shortened: as §1

[4] = tested on: SLVL (B-Cell Non-Hodgkin's Lymphoma); assay: as above
Procedure, shortened: as §1

[5] = tested on: SW48 (Colorectal Carcinoma); assay: as above
Procedure, shortened: as §1

[6] = tested on: JHH-6 (Hepatocellular Carcinoma); assay: combination Emax (second highest fraction inhibited in the dose matrix, 72 h); higher = more inhibition; extreme values may be limits of the assay
Procedure, shortened: as §1

[7] = tested on: MES-SA (Other Solid Carcinomas); assay: as above
Procedure, shortened: as §1

[8] = tested on: MEG-01 (Chronic Myelogenous Leukemia); assay: as above
Procedure, shortened: as §1

HCC38 (Breast Carcinoma) = assay: as above
Procedure, shortened: as §1

[9] = tested on: BICR78 (Oral Cavity Carcinoma); assay: as above
Procedure, shortened: as §1

[10] = tested on: HCT-116 (Colorectal Carcinoma); assay: as above
Procedure, shortened: as §1

A172 (Glioblastoma) = assay: as above
Procedure, shortened: as §1

HuO9 (Osteosarcoma) = assay: as above
Procedure, shortened: as §1

MSTO-211H (Mesothelioma) = assay: as above
Procedure, shortened: as §1

SK-MEL-1 (Melanoma) = assay: as above
Procedure, shortened: as §1

[11] = tested on: HLE (Hepatocellular Carcinoma); assay: as above
Procedure, shortened: as §1

[12] = tested on: SLVL (B-Cell Non-Hodgkin's Lymphoma); assay: as above
Procedure, shortened: as §1

[13] = tested on: NOMO-1 (Acute Myeloid Leukemia); assay: as above
Procedure, shortened: as §1

[14] = tested on: PA-TU-8902 (Pancreatic Carcinoma); assay: as above
Procedure, shortened: as §1

Row | SMILES | Bliss excess (D-392MG (Glioblastoma)) | Bliss excess [1] | Bliss excess [2] | Bliss excess [3] | Bliss excess [4] | Bliss excess [5] | combination Emax [6] | combination Emax [7] | combination Emax [8] | combination Emax (HCC38 (Breast Carcinoma)) | combination Emax [9] | combination Emax [10] | combination Emax (A172 (Glioblastoma)) | combination Emax (HuO9 (Osteosarcoma)) | combination Emax (MSTO-211H (Mesothelioma)) | combination Emax (SK-MEL-1 (Melanoma)) | combination Emax [11] | combination Emax [12] | combination Emax [13] | combination Emax [14]
1 | Cc1c2c(nn1C)CSCc1cc(n(C)n1)CSc1cc(c3ccccc3c1)OCCCc1c(C(=O)O)n(C)c3c-2c(Cl)ccc13 [AZD5991] + C=CCn1c(=O)c2cnc(Nc3ccc(N4CCN(C)CC4)cc3)nc2n1-c1cccc(C(C)(C)O)n1 [AZD1775] (first compound max 1 µM, partner max 1 µM) | 0.116 | -0.0118 | 0.0017 | -0.0534 | -0.0346 | -0.0318 | 0.326 | 0.84 | 0.927 | 0.657 | 0.381 | 0.641 | 0.609 | 1 | 0.596 | 0.402 | 0.849 | 0.937 | 0.989 | 0.31
2 | Cc1cc2ncnn2cc1Nc1ncc2c(n1)n(C1CCOCC1)c(=O)n2C [AZD7648] + O=C(c1cc(Cc2n[nH]c(=O)c3ccccc23)ccc1F)N1CCN(C(=O)C2CC2)CC1 [Olaparib] (first compound max 10 µM, 7x7, partner max 10 µM) | -0.0456 | -0.0443 | -0.036 | -0.0331 | -0.0027 | -0.031 | 0.158 | 0.637 | 0.22 | 0.07 | 0.182 | 0.234 | 0.468 | 0.441 | 0.218 | 0.24 | 0.252 | 0.455 | 0.365 | 0.112
3 | CC(=O)c1c(C)c2cnc(Nc3ccc(N4CCNCC4)cn3)nc2n(C2CCCC2)c1=O [Palbociclib] + CC1(C)CCC(CN2CCN(c3ccc(C(=O)NS(=O)(=O)c4ccc(NCC5CCOCC5)c([N+](=O)[O-])c4)c(Oc4cnc5[nH]ccc5c4)c3)CC2)=C(c2ccc(Cl)cc2)C1 [Venetoclax] (first compound max 10 µM, 7x7, partner max 1 µM) | -0.07 | -0.0361 | -0.0399 | -0.0343 | -0.0892 | -0.0251 | 0.227 | 0.361 | 0.484 | 0.0554 | 0.092 | 0.559 | 0.457 | 0.406 | 0.0513 | 0.242 | 0.0796 | 0.325 | 0.596 | 0.245
4 | CN(C)CCCOc1ccc(-c2ccc3ncc4c(c3c2)n(C2CCOCC2)c(=O)n4C)cn1 [AZD0156] + CCN(CCO)CCCOc1ccc2c(Nc3cc(CC(=O)Nc4cccc(F)c4)[nH]n3)ncnc2c1 [AZD2811] (first compound max 1 µM, 7x7, partner max 1 µM) | -0.0556 | -0.0339 | 0.0189 | 0.0253 | -0.0768 | -0.0164 | 0.241 | 0.711 | 0.329 | 0.181 | 0.182 | 0.287 | 0.499 | 0.224 | 0.27 | 0.275 | 0.414 | 0.605 | 0.501 | 0.0699
5 | CCc1c2c(nc3ccc(O)cc13)-c1cc3c(c(=O)n1C2)COC(=O)[C@]3(O)CC [SN-38] + O=C(c1cc(Cc2n[nH]c(=O)c3ccccc23)ccc1F)N1CCN(C(=O)C2CC2)CC1 [Olaparib] (first compound max 0.3 µM, 7x7, partner max 10 µM) | 0.0711 |  | 0.0335 | 0.057 | 0.0327 | 0.028 | 0.42 |  | 0.755 | 0.682 | 0.786 | 0.9 | 0.842 | 0.996 | 0.677 | 0.516 | 0.945 | 1 | 0.968 | 0.428
6 | CN(CCO)CC[C@H](CSc1ccccc1)Nc1ccc(S(=O)(=O)NC(=O)c2ccc(N3CCC([C@@H](O)c4ccccc4-c4ccc(Cl)cc4)CC3)cc2)cc1S(=O)(=O)C(F)(F)F [AZD4320] + CCN(CCO)CCCOc1ccc2c(Nc3cc(CC(=O)Nc4cccc(F)c4)[nH]n3)ncnc2c1 [AZD2811] (first compound max 1 µM, 7x7, partner max 1 µM) | 0.114 | -0.0262 | 0.0338 | 0.0705 | 0.135 | -0.0226 | 0.391 | 0.513 | 0.93 | 0.802 | 0.313 | 0.748 | 0.457 | 0.728 | 0.837 | 0.453 | 0.721 | 0.94 | 0.76 | 0.189
7 | CN(CCO)CC[C@H](CSc1ccccc1)Nc1ccc(S(=O)(=O)NC(=O)c2ccc(N3CCC([C@@H](O)c4ccccc4-c4ccc(Cl)cc4)CC3)cc2)cc1S(=O)(=O)C(F)(F)F [AZD4320] + Cn1cnc2c(F)c(Nc3ccc(Br)cc3Cl)c(C(=O)NOCCO)cc21 [Selumetinib] (first compound max 1 µM, 7x7, partner max 3 µM) | -0.0474 | 0.0604 | -0.0142 |  | -0.401 | -0.0159 | 0.35 | 0.246 |  | 0.907 | 0.508 | 0.709 | 0.212 | 0.979 | 0.531 | 0.976 | 0.504 | 0.966 | 1 | 0.7
8 | CS(=O)(=O)CCNCc1ccc(-c2ccc3ncnc(Nc4ccc(OCc5cccc(F)c5)c(Cl)c4)c3c2)o1 [Lapatinib] + NC1(c2ccc(-c3nc4ccn5c(=O)[nH]nc5c4cc3-c3ccccc3)cc2)CCC1 [MK-2206] (first compound max 10 µM, 7x7, partner max 10 µM) | -0.0411 |  | -0.0136 | 0.0057 | 0.0539 | 0.0412 |  |  | 0.904 | 0.503 | 0.545 | 0.891 |  | 0.995 | 0.126 | 0.888 | 0.597 | 0.81 | 0.778 | 0.72
9 | C=CCn1c(=O)c2cnc(Nc3ccc(N4CCN(C)CC4)cc3)nc2n1-c1cccc(C(C)(C)O)n1 [AZD1775] + C1CN(CCC1(C(=O)N[C@@H](CCO)C2=CC=C(C=C2)Cl)N)C3=NC=NC4=C3C=CN4 [Capivasertib] (first compound max 3 µM, partner max 3 µM) | 0.0315 |  | -0.0734 | -0.0037 |  |  | 0.508 | 0.863 | 0.965 | 0.748 | 0.441 | 0.667 | 0.623 | 0.902 | 0.352 | 0.336 | 0.858 | 0.87 | 0.964 | 0.527
10 | CS(=O)(=O)CCNCc1ccc(-c2ccc3ncnc(Nc4ccc(OCc5cccc(F)c5)c(Cl)c4)c3c2)o1 [Lapatinib] + Cn1cnc2c(F)c(Nc3ccc(Br)cc3Cl)c(C(=O)NOCCO)cc21 [Selumetinib] (first compound max 10 µM, 7x7, partner max 10 µM) | -0.0383 |  | 0.0068 | 0.0151 | 0.0683 | 0.146 |  |  | 0.644 | 0.214 | 0.547 | 0.775 |  |  | 0.337 | 0.838 | 0.234 | 0.432 | 0.661 | 
11 | Cc1c2c(nn1C)CSCc1cc(n(C)n1)CSc1cc(c3ccccc3c1)OCCCc1c(C(=O)O)n(C)c3c-2c(Cl)ccc13 [AZD5991] + C[C@@H](Nc1cc(F)cc(F)c1)c1cc(C(=O)N(C)C)cc2c(=O)cc(N3CCOCC3)oc12 [AZD8186] (first compound max 1 µM, 7x7, partner max 3 µM) | 0.0111 | -0.0277 | 0.0254 | -0.0104 | -0.0262 | -0.0271 | 0.236 | 0.267 | 0.416 | 0.396 | 0.189 | 0.248 | 0.304 | 1 | 0.313 | 0.153 |  | 0.47 | 0.905 | 0.173
12 | CN(C)CCCOc1ccc(-c2ccc3ncc4c(c3c2)n(C2CCOCC2)c(=O)n4C)cn1 [AZD0156] + O=C(c1cc(Cc2n[nH]c(=O)c3ccccc23)ccc1F)N1CCN(C(=O)C2CC2)CC1 [Olaparib] (first compound max 3 µM, partner max 3 µM) | -0.0585 |  | -0.0129 | 0.0429 | 0.0638 |  | 0.141 | 0.353 | 0.156 | 0.266 | 0.129 | 0.281 | 0.323 | 0.49 | 0.0713 | 0.0982 | 0.335 | 0.313 | 0.321 | 0.239
13 | Cc1nc(-c2cn3c(n2)-c2ccc(-c4cnn(C(C)(C)C(N)=O)c4)cc2OCC3)n(C(C)C)n1 [Taselisib] + O=C(Nc1ccc2[nH]nc(-c3ccncc3)c2c1)[C@@H]1CCN(CC(=O)N2CCN(c3ccc(-c4ncccn4)cc3)CC2)C1 [SCH772984] (first compound max 10 µM, 7x7, partner max 5 µM) | 0.0272 |  | 0.0366 | 0.104 | 0.0524 | 0.203 |  |  | 0.954 | 0.355 | 0.66 | 1 |  |  | 0.806 | 0.893 | 0.33 | 0.667 | 0.932 | 
